Consider 14 compounds from PMC6837725.

The nature of the data set: Intramolecular Suzuki-Miyaura C(sp3)-C(sp2) coupling (cis-4-chlorocyclobut-2-ene carboxylate + E-vinyl-BPin) followed by spontaneous 4pi-electrocyclic ring opening to the (E,E,E)-trienoate macrolactone; Pd(PPh3)4 10 mol%, Cs2CO3 5 equiv. The settings on record: 19-membered ring, THF/H2O 3:1, 2.0 mM, 25.0 °C.

As for `C/C(=C\C=C\C(F)(F)F)[C@H]1CC(=O)NC[C@H](O[Si](C)(C)C(C)(C)C)[C@H](C)C(=O)NCC/C=C/C=C/C=C/C(=O)O1`, the ring closure, isolated yield (from C/C(=C\C=C\C(F)(F)F)[C@@H](CC(=O)NC[C@H](O[Si](C)(C)C(C)(C)C)[C@H](C)C(=O)NCC/C=C/B1OC(C)(C)C(C)(C)O1)OC(=O)C1C=CC1Cl) worked out at 73%. As for `C[C@@H]1C(=O)NCC/C=C/C=C/C=C/C(=O)O[C@@H](C)CC(=O)NC[C@@H]1O[Si](C)(C)C(C)(C)C`, under “from C[C@H](C(=O)NCC/C=C/B1OC(C)(C)C(C)(C)O1)[C@H](CNC(=O)C[C@H](C)OC(=O)C1C=CC1Cl)O[Si](C)(C)C(C)(C)C”, the ring closure, isolated yield was found to be 84%. `CCCCCCC/C=C/C=C(\C)[C@H]1CC(=O)NC[C@H](O[Si](C)(C)C(C)(C)C)[C@H](C)C(=O)NCC/C=C/C=C/C=C/C(=O)O1` [cis-31a -> 32a (FR252921)]: under “from CCCCCCC/C=C/C=C(\C)[C@@H](CC(=O)NC[C@H](O[Si](C)(C)C(C)(C)C)[C@H](C)C(=O)NCC/C=C/B1OC(C)(C)C(C)(C)O1)OC(=O)C1C=CC1Cl”, the ring closure, isolated yield turned out to be 74%. Regarding `CCCCCCCCC/C=C/C=C(\C)[C@H]1CC(=O)NC[C@H](O[Si](C)(C)C(C)(C)C)[C@H](C)C(=O)NCC/C=C/C=C/C=C/C(=O)O1` [cis-31b -> 32b (FR252922)], for the setting “from CCCCCCCCC/C=C/C=C(\C)[C@@H](CC(=O)NC[C@H](O[Si](C)(C)C(C)(C)C)[C@H](C)C(=O)NCC/C=C/B1OC(C)(C)C(C)(C)O1)OC(=O)C1C=CC1Cl”, the ring closure, isolated yield was determined as 82%. On to `CCCCCCC/C=C/C=C/C=C(\C)[C@H]1CC(=O)NC[C@H](O[Si](C)(C)C(C)(C)C)[C@H](C)C(=O)NCC/C=C/C=C/C=C/C(=O)O1` [cis-31c -> 32c (FR256523)], for which the ring closure, isolated yield (from CCCCCCC/C=C/C=C/C=C(\C)[C@@H](CC(=O)NC[C@H](O[Si](C)(C)C(C)(C)C)[C@H](C)C(=O)NCC/C=C/B1OC(C)(C)C(C)(C)O1)OC(=O)C1C=CC1Cl) came out at 71%.

Consider `CCCCCCCCCCC[C@H]1CC(=O)NC[C@H](O[Si](C)(C)C(C)(C)C)[C@H](C)C(=O)NCC/C=C/C=C/C=C/C(=O)O1` [cis-31d -> 32d (FR1, C11H23 side chain)], for which the ring closure, isolated yield (from CCCCCCCCCCC[C@@H](CC(=O)NC[C@H](O[Si](C)(C)C(C)(C)C)[C@H](C)C(=O)NCC/C=C/B1OC(C)(C)C(C)(C)O1)OC(=O)C1C=CC1Cl) is 56%. `CCCCCCC/C=C/C=C(\C)[C@H]1CC(=O)NC[C@H](O[Si](C)(C)C(C)(C)C)CC(=O)NCC/C=C/C=C/C=C/C(=O)O1` [cis-31f -> 32f (FR3, C12-desmethyl)]: under “from CCCCCCC/C=C/C=C(\C)[C@@H](CC(=O)NC[C@@H](CC(=O)NCC/C=C/B1OC(C)(C)C(C)(C)O1)O[Si](C)(C)C(C)(C)C)OC(=O)C1C=CC1Cl”, the ring closure, isolated yield turned out to be 73%. `CCCCCCC/C=C/C=C(\C)[C@H]1CC(=O)NCCCC(=O)NCC/C=C/C=C/C=C/C(=O)O1` [cis-31g -> FR4 (no C12-Me, no C13-O)]: the ring closure, isolated yield (from CCCCCCC/C=C/C=C(\C)[C@@H](CC(=O)NCCCC(=O)NCC/C=C/B1OC(C)(C)C(C)(C)O1)OC(=O)C1C=CC1Cl) was found to be 55%. Consider `C/C(=C\C=C\c1ccccc1)[C@H]1CC(=O)NC[C@H](O[Si](C)(C)C(C)(C)C)[C@H](C)C(=O)NCC/C=C/C=C/C=C/C(=O)O1` [cis-31i -> 32i (FR6, Ph-dienyl)], for which, for the setting “from C/C(=C\C=C\c1ccccc1)[C@@H](CC(=O)NC[C@H](O[Si](C)(C)C(C)(C)C)[C@H](C)C(=O)NCC/C=C/B1OC(C)(C)C(C)(C)O1)OC(=O)C1C=CC1Cl”, the ring closure, isolated yield was found to be 80%. As for `C/C(=C\C=C\c1ccc(C)cc1)[C@H]1CC(=O)NC[C@H](O[Si](C)(C)C(C)(C)C)[C@H](C)C(=O)NCC/C=C/C=C/C=C/C(=O)O1` [cis-31j -> 32j (FR7, p-tolyl-dienyl)], the ring closure, isolated yield (from C/C(=C\C=C\c1ccc(C)cc1)[C@@H](CC(=O)NC[C@H](O[Si](C)(C)C(C)(C)C)[C@H](C)C(=O)NCC/C=C/B1OC(C)(C)C(C)(C)O1)OC(=O)C1C=CC1Cl) was 20%. Take `C/C(=C\C=C\c1ccc(C(F)(F)F)cc1)[C@H]1CC(=O)NC[C@H](O[Si](C)(C)C(C)(C)C)[C@H](C)C(=O)NCC/C=C/C=C/C=C/C(=O)O1` [cis-31k -> 32k (FR8, p-CF3-phenyl-dienyl)]: the ring closure, isolated yield (from C/C(=C\C=C\c1ccc(C(F)(F)F)cc1)[C@@H](CC(=O)NC[C@H](O[Si](C)(C)C(C)(C)C)[C@H](C)C(=O)NCC/C=C/B1OC(C)(C)C(C)(C)O1)OC(=O)C1C=CC1Cl) was determined as 47%.

Regarding `C[C@@H]1C(=O)NCC/C=C/C=C/C=C/C(=O)O[C@@H](c2ccc(Br)cc2)CC(=O)NC[C@@H]1O[Si](C)(C)C(C)(C)C` [cis-31l -> 32l (FR9, 4-bromophenyl)], for the setting “from C[C@H](C(=O)NCC/C=C/B1OC(C)(C)C(C)(C)O1)[C@H](CNC(=O)C[C@@H](OC(=O)C1C=CC1Cl)c1ccc(Br)cc1)O[Si](C)(C)C(C)(C)C”, the ring closure, isolated yield worked out at 58%. For `C/C(=C\Br)[C@H]1CC(=O)NC[C@H](O[Si](C)(C)C(C)(C)C)[C@H](C)C(=O)NCC/C=C/C=C/C=C/C(=O)O1` [cis-31m -> 32m (FR10, bromovinyl)], the ring closure, isolated yield (from C/C(=C\Br)[C@@H](CC(=O)NC[C@H](O[Si](C)(C)C(C)(C)C)[C@H](C)C(=O)NCC/C=C/B1OC(C)(C)C(C)(C)O1)OC(=O)C1C=CC1Cl) came to 54%. In the case of `C[C@@H]1C(=O)NCC/C=C/C=C/C=C/C(=O)O[C@@H](c2ccc3ccccc3c2)CC(=O)NC[C@@H]1O[Si](C)(C)C(C)(C)C` [cis-31n -> 32n (FR11, 2-naphthyl)], the ring closure, isolated yield (from C[C@H](C(=O)NCC/C=C/B1OC(C)(C)C(C)(C)O1)[C@H](CNC(=O)C[C@@H](OC(=O)C1C=CC1Cl)c1ccc2ccccc2c1)O[Si](C)(C)C(C)(C)C) worked out at 51%.
